Results: patent publication US20040049075A1, “Process for the production of calcium pantothenate” (priority 2000, published 2004)

Test: Moisture absorption test
Format: physicochemical
Conditions: 40° C. and 75% RH; nonhygroscopic defined in b24 as moisture absorption 2% or less after 24 hours
Description: The term “crystalline” used in the specification encompasses a substance containing a small amount of an amorphous part, as well as a substance substantially consisting completely of crystals. However, calcium pantothenate in a completely amorphous state (the state which gives substantially no detectable peak by the powder X-ray diffraction analysis) is excluded. The term “crystalline” should not be interpreted to exclude a substance containing a small amount of an amorphous part. Further, the term “amorphous” means a state in which no peak is substantially detectable by powder X-ray diffraction analysis. The term “nonhygroscopic” used in the specification means that a moisture absorption amount is 2% or less, preferably 1% or less, after 24 hours at 40° C. under a relative humidity of 75%. A moisture absorption test was performed under conditions of 40° C. and 75% RH for the PC consisting of α-form crystals obtained in Example 1 and the PC consisting of β-form crystals obtained in Example 7. A similar test was performed for the amorphous PC used in Example 1 as a control.

monocalcium bis[(R)-N-(2,4-dihydroxy-3,3-dimethylbutyryl)-β-alaninate]
hygroscopicity (verdict of moisture absorption test): nonhygroscopic
